Where “and” joins values, the source holds several entries; their conditions need not be identical. Equal values may be shown once.
Assays:
BAX = BAX expression assay (Western blot); type: cell-based, human; conditions: HepG2, 1.13 µM, 24 h
Description: (§1) The expression of BAX and Bcl-2 were evaluated in the HepG2 cells after treatment with 1.13 µM of compound 17a for 24 h. The Western blotting technique was utilized to determine the levels of Bax and Bcl-2 proteins and estimate the Bax/Bcl-2 ratio.
(§2) The expression of apoptotic BAX and antiapoptotic Bcl-2 proteins in the liver HepG2 cells treated with 1.13 μM of 17a was determined using Western blot analysis, as described in the Supplementary Materials. […]
(§3) Casp3 F: 5ʹ‐ […] ‐3ʹ
(§4) Casp3 R: 5ʹ‐ […] ‐3ʹ […]
(§5) β‐actin F: 5ʹ‐[…]‐3ʹ […]
(§6) β‐actin R: 5ʹ‐[…]‐3ʹ […]
(§7) 4.2.6. Bax and Bcl‐2 expression assay
The expression of BAX and Bcl‐2 proteins were determined using Western blot anal‐ ysis. In brief, HepG2 cells were treated with control or with the synthesized compound 17a (1.13 μM). Then cells were lysed in 250 μL precold lysis buffer (pH 7.4: Tris‐Base [10 mM], NaCl [100 mM], ethylenediaminetetraacetic acid [EDTA, 25 mM], ethylene glycol bis (2‐ aminoethyl) tetraacetic acid [EGTA, 25 mM], 1% [v/v] NP‐40, and 1% [v/v] Triton X‐100) supplemented with 1:350 protease:phosphatase inhibitors cocktail (Sigma). The cells were immediately frozen at −20°C for 1.5 hours for further analysis, collected by cell scraper, sonicated 3 × 10 seconds, and centrifuged (13000 rpm, 15 minutes). Total protein concentrations in the supernatant were colorimetrically determined using the Pierce 660 nm Protein Assay method (Thermo Fisher Scientific, Rockford, IL), with BSA as the stand‐ ard. Equal amounts of protein (25 μg) samples were mixed with SDS‐loading buffer (pH 6.8: Tris‐HCl [700 mM], dithiothreitol [DTT, 600 mM], sodium dodecyl sulfate [SDS, 12%], glycerol [60%], and bromophenol blue [0.012%]), denatured by boiling at 95°C for 10 minutes, allowed to cool on ice for 15 minutes, vigorously vortexed for 30 seconds, loaded into SDS‐polyacrylamide gel and separated by an electrophoresis unit (Cleaver Scientific Ltd, UK), and transferred onto polyvinylidene fluoride membranes (Bio‐Rad) for 35 minutes using a Trans‐Blot SD semi‐dry transfer cell (Bio‐Rad) at 250 mA and 22 V. Mem‐ branes were blocked with 5% (w/v) blotting grade dry milk (Bio‐Rad) in Tris‐buffered saline/Tween‐20 (TBS‐T) (pH 7.5: Tris‐base [20 mM], NaCl [150 mM], and 0.05% [v/v] Tween‐ 20) while shaken for 1.5 hour at RT, and then incubated with the corresponding primary antibody against BAX (Biovision, USA) and Bcl‐2 (Bioimaging, system, syngene, UK) for 9‐10 hours at 4°C in a humidified chamber. […] Means of the detected blot intensities were then quantified, analyzed by the combined Bio‐Rad Image Lab soft‐ ware and their corresponding background subtracted, with normalization to the corre‐ sponding bands density of β‐actin as the sampling loading control. […]

Bcl-2 = Bcl-2 expression assay (Western blot); type: cell-based, human; conditions: HepG2, 1.13 µM, 24 h
Description: as §1, §2, §3, §4, §5, §6, §7
The expression of BAX and Bcl‐2 proteins were determined using Western blot anal‐ ysis. In brief, HepG2 cells were treated with control or with the synthesized compound 17a (1.13 μM). […] Total protein concentrations in the supernatant were colorimetrically determined using the Pierce 660 nm Protein Assay method (Thermo Fisher Scientific, Rockford, IL), with BSA as the stand‐ ard. […] Means of the detected blot intensities were then quantified, analyzed by the combined Bio‐Rad Image Lab soft‐ ware and their corresponding background subtracted, with normalization to the corre‐ sponding bands density of β‐actin as the sampling loading control. […]

SMILES: O=C1Nc2ccccc2C1=Nc1ccc(C(=O)NNC(=S)Nc2ccccc2)cc1 [Compound 17a, 2-(4-((2-Oxoindolin-3-ylidene)amino)benzoyl)-N-phenylhydrazinecarbothioamide]
- increase of BAX expression versus control (BAX): 2.69 fold and 2.7 fold
- increase of BAX/Bcl-2 ratio versus control (BAX): 5 fold
- Protein Expression (Normalized to β-Actin) BAX (BAX; control 0.175): 0.472
- BAX/Bcl-2 Ratio (BAX; control 0.41): 2.06
- decrease of Bcl-2 expression versus control (Bcl-2): 1.88 fold and 1.9 fold
- Protein Expression (Normalized to β-Actin) Bcl-2 (Bcl-2; control 0.432): 0.229

From PMC9698773, “Design, Synthesis, Molecular Modeling, and Anticancer Evaluation of New VEGFR-2 Inhibitors Based on the Indolin-2-One Scaffold” (Pharmaceuticals, 2022)
